In US20260200903A1, “PHARMACEUTICAL COMPOSITION FOR AMELIORATING MALIGNANT DISEASES” (KINKI UNIVERSITY, priority 2020, published 2026):

What was measured:
IL-6 = IL-6 secretion in KMS-28BM cells, Luminex; format: cell-based, human; settings: KMS-28BM culture supernatant after 10 days; compounds at 0.005-50 μM; control 143 μg/mL
Procedure: The inhibitory effect of each compound on IL-6 secretion was examined using Luminex in KMS-28BM cells.
As a control, compounds untreated KMS-28BM cells were seeded in 75 cm^2 flasks and incubated for 10 days at 37° C. and 5% CO2. KMS-28BM cells were seeded into 75 cm^2 flasks and pre-cultured for 4 h. After incubation, KMS-28BM cells were treated with […], 0.05 μM M9, 0.1 μM yk-7, 0.1 μM yk-8-3, 50 μM yk-8-1, 0.5 μM M11, […], 0.005 μM M14, 0.005 μM M15, 0.005 μM M16, 0.5 μM M18, and 0.5 μM M19 at final concentrations, and incubated for 10 days at 37° C. and 5% CO2. After 10 days of incubation, the culture supernatant was collected and the secretion of IL-6, a bone destruction-related factor and a growth-promoting factor, was measured by Luminex. The human Magnetic Luminex Assay (R&D) was used for this measurement.

IgG = IgG secretion in L363 cells, ELISA; format: cell-based, human; settings: L363 culture supernatant after 10 days; compounds at 0.005-50 μM; control 2098 ng/mL
Procedure: The inhibitory effect of each compound on IgG secretion was examined by enzyme-linked immunosorbent assay (ELISA) using L363 cells.
As a control, compounds untreated L363 cells were seeded in 75 cm^2 flasks and incubated for 10 days at 37° C. and 5% CO2. L363 cells were seeded into 75 cm^2 flasks and pre-cultured for 4 h. After incubation, L363 cells were treated with 0.1 μM M7, 0.05 μM M9, 0.1 μM yk-7, 0.1 μM yk-8-3, 50 μM yk-8-1, 0.1 μM M11, 0.01 μM M12, 0.005 μM M14, 0.005 μM M15, 0.005 μM M16, 1 μM M18, and 1 μM M19 at final concentrations, and incubated for 10 days at 37° C. and 5% CO2. After 10 days of incubation, the culture supernatant was collected and IgG secretion was measured by ELISA. This measurement was performed using a human anti-IgG antibody ELISA kit (Funakoshi).

MIP-1α = MIP-1α secretion in L363 cells, Luminex; format: cell-based, human; settings: L363 culture supernatant after 10 days; compounds at 0.005-50 μM; control 266 μg/mL
Procedure: The inhibitory effect of each compound on MIP-1α secretion was examined using Luminex in L363 cells.
As a control, compounds untreated L363 cells were seeded in 75 cm^2 flasks and incubated for 10 days at 37° C. and 5% CO2. L363 cells were seeded into 75 cm^2 flasks and pre-cultured for 4 h. After incubation, L363 cells were treated with 0.1 μM M7, 0.05 μM M9, 0.1 μM yk-7, 0.1 μM yk-8-3, 50 μM yk-8-1, 0.1 μM M11, 0.01 μM M12, 0.005 μM M14, 0.005 μM M15, 0.005 μM M16, 1 μM M18, and 1 μM M19 at final concentrations, and incubated for 10 days at 37° C. and 5% CO2. After 10 days of incubation, the culture supernatant was collected and the secretion of MIP-la, a bone destruction-related factor and a growth-promoting factor, was measured by Luminex. The human Magnetic Luminex Assay (R&D) was used for this measurement.

L363 cells = experiment: Tumor growth inhibition in mice transplanted with L363 cells; format: in vivo, NOD/ShiJic-scidJcl mice; settings: oral 100 mg/kg daily, day 24, vs control group (P<0.01)
Procedure: L363 cells were transplanted into NOD/ShiJic-scidJcl mice, and the tumor growth inhibitory effect of oral administration of M9 was examined. As a result, a remarkable tumor growth inhibitory effect was observed.
L363 cells were transplanted into NOD/ShiJic-scidJcl mice, and M9 was orally administered to the mice at 100 mg/kg daily on day 0 when the average tumor volume exceeded 100 mm^3, and tumor volume was measured on day 24.
The group that was only implanted with L363 cells is called the target group and the group that was treated with M9 is called the M9-treated group. Each group consisted of 5 animals.
Referring to the figure, the horizontal axis indicates drug treatment, and the vertical axis indicates tumor volume (percent of the control group).
White bars indicate the control group (labeled “Control”). Black bars indicate the M9 treatment group (labeled “100 mg/kg M9”). Those with significant differences (P<0.01) from the control group are marked with an asterisk (*).

SMILES	IL-6 secretion (IL-6) [µg/mL]	IgG secretion (IgG) [ng/mL]	MIP-1α secretion (MIP-1α) [µg/mL]	tumor growth (tumor volume, percent of the control group) (L363 cells)
CCCCC(=O)OC[C@H]1O[C@@H](c2c(OC(=O)CCCC)cc3oc4cc(OC(=O)CCCC)c(OC(=O)CCCC)cc4c(=O)c3c2OC(=O)CCCC)[C@H](OC(=O)CCCC)[C@@H](OC(=O)CCCC)[C@@H]1OC(=O)CCCC [yk-8-1, 1,3,2′,3′,4′,6,6′,7-octa-O-valerylmangiferin]	84	1474	179	–
CCCC(=O)OC[C@H]1O[C@@H](c2c(OC(=O)CCC)cc3oc4cc(OC(=O)CCC)c(OC(=O)CCC)cc4c(=O)c3c2OC(=O)CCC)[C@H](OC(=O)CCC)[C@@H](OC(=O)CCC)[C@@H]1OC(=O)CCC [Compound M11, 1,3,2′,3′,4′,6,6′,7-octa-O-butyrylmangiferin]	12	44	6	–
CCC(=O)OC[C@H]1O[C@@H](c2c(O)cc3oc4cc(O)c(O)cc4c(=O)c3c2O)[C@H](OC(=O)CC)[C@@H](OC(=O)CC)[C@@H]1OC(=O)CC [Compound M9, 2′,3′,4′,6′-tetra-O-propionylmangiferin]	–	–	–	significant inhibition of tumor growth
